Experiment [1] concerns epithelial cells. Nature of the experiment: Effects of compounds on extracellular GSH transport (Table 3). Format: cell-based. The note with it: Epithelial cell, read-out: % Increase Over Control (extracellular GSH).
The test system of experiment [2] is A549 cells. The experiment is described as follows: Intracellular GSH levels by HPLC-EC in A549 cells. Format: cell-based, human. The settings on record: Homo sapiens, A549, 25 μM. An outline of the steps: (§1)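 Cultured cells were lysed in water with 40 μM digitonin for 30 min at room temperature, acidified to 1% meta-phosphoric acid, sonicated and centrifuged. GSH in the supernatant was measured by HPLC with coulometric electrochemical detection at +0.75 V vs. H/Pd.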

In experiment [3] the test system is PC-3 cells. Nature of the experiment: Cytotoxicity as LDH release in PC-3 cells. Type of experiment: cell-based, human. The note with it: Homo sapiens; PC-3, 50 μM, 48 hours treatment; read-out: LDH rel. % con. An outline of the steps: (§2)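 Cells in 24-well plates at 37° C, 5% CO2 (A549 in F12, PC-3 in F12K, HL-60 in IMDM, with FBS). LDH in medium and lysates measured by NADH consumption at 340 nm with 0.24 mM NADH and 9.8 mM pyruvate, 30° C; % release = supernatant/(supernatant+lysate)×100.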
(In general: LDH in the medium is a marker of cell lysis.)

The subject of experiment [4] is HL-60 cells. Nature of the experiment: Cytotoxicity as LDH release in HL-60 cells. The settings on record: Homo sapiens; HL-60, 25 μM, 48 hours treatment; read-out: LDH rel. % con. Format: cell-based, human. In outline: as §2
Experiment [5] has as its system A549 cells. Nature of the experiment: Cytotoxicity as LDH release in A549 cells. Type of experiment: cell-based, human. The settings on record: Homo sapiens; A549, 50 μM, 48 hours treatment; read-out: LDH rel. % con. An outline of the steps: as §2
Experiment [6] deals with epithelial cells. Nature of the experiment: Extracellular GSH transport, Transwell Studies (Table 3). Type of experiment: cell-based. The note with it: 100 μM.
For experiment [7], the system named is HL-60 cells. The experiment is described as follows: Intracellular GSH levels by HPLC-EC in HL-60 cells. Type of experiment: cell-based, human. The note with it: Homo sapiens; HL-60, 25 μM, 24 hours treatment; read-out: Int. GSH % con. An outline of the steps:
as §1

Experiment [8] deals with PC-3 cells. Nature of the experiment: Intracellular GSH levels by HPLC-EC in PC-3 cells. Format: cell-based, human. The settings on record: Homo sapiens; PC-3, 25 μM, 24 hours treatment; read-out: Int. GSH % con. An outline of the steps:
as §1

A short description of experiment [9]: Epithelial lining fluid (ELF) GSH concentration in dexamethasone treated mice. The settings on record: 1 mg/kg intraperitoneal daily for two days, BALF at 48 hours; mean±standard error. Type of experiment: in vivo, Wild type (C57/B6) mice. How it is done: FIG. 17 Dexamethasone-Induced Changes in Epithelial Lining Fluid (ELF) Glutathione (GSH) Concentrations. Wild type (C57/B6) mice were given a 1 mg/kg dexamethasone (DEX) injection (intraperitoneal) daily for two days. Bronchoalveolar lavage fluid (BALF) was obtained at 48 hours after the first initial dose and GSH concentrations determined. BALF was obtained through a tracheal canula with a single 2.0 mL aliquots of phosphate-buffered saline (pH 7.4) that was instilled into the lung and withdrawn only once. The BALF was centrifuged at 4000×g to remove cells (i.e., alveolar macrophages). The cell-free BALF was acidified with metaphosphoric acid to a final concentration of 1% metaphosphoric acid and centrifuged at 20,000×g to pellet the precipitated proteins. GSH concentrations were determined by HPLC coupled with electrochemical detection. ELF concentrations of GSH were calculated from BALF concentrations multiplied by a dilution factor derived from the difference in serum and BALF urea concentrations. […] Data are shown as the mean±standard error for n≧4 with significance attained at p≦0.05.
Serum and BALF Urea Concentrations. […] ELF concentrations are then calculated by multiplying the BALF concentrations by the dilution factor. Urea concentrations in the samples are determined using a commercially available reagent (Sigma Diagnostics 66-20; St. Louis, Mo.).

For experiment [10], the system named is P-gp. The note with it: single dose; renal basement membrane, liver and intestine; cited from earlier work.

Like-named read-outs stand apart in the source and are kept apart here. Marks after values point to notes of the source that are not given here.

On to `COc1ccc2c(c1)c(CC(=O)O)c(C)n2C(=O)c1ccc(Cl)cc1` [Indomethacin, 1-(4-chlorobenzoyl)-5-methoxy-2-methyl-1H-indole-3-acetic acid, reference compound], for which the activation at 100 µM in [1] (100 μM) was 235%. In addition, the activity at 25 µM is 71.4 ± 2.8% in experiment [2] (2 h, read-out: Intracellular GSH levels, % compared to control); 7.8 ± 1.2% in [2] (4 h, read-out: Intracellular GSH levels, % compared to control); below 5% in [2] (24 hours treatment, read-out: Int. GSH % con.); 49% in experiment [7]; 75% in experiment [8]. Further, the LDH release, % of control at 50 µM in experiment [3] turned out to be 122%; in [5], 251%. In addition, in experiment [4], the LDH release, % of control at 25 µM came out at 126%. The “% Increase Over Control (extracellular GSH)” value in [6] is 136 ^a %.

Take `C[C@@H]1C[C@H]2[C@@H]3CCC4=CC(=O)C=C[C@]4(C)[C@@]3(F)[C@@H](O)C[C@]2(C)[C@@]1(O)C(=O)CO` [Dexamethasone, 9-fluoro-11 b,17,21-trihydroxy-16a-methylpregna-1,4-diene-3,20-dione, reference compound]: the activation at 50 µM in [1] (50 μM) amounted to 178%. For the same molecule, the “ELF concentrations of GSH” value in experiment [9] worked out at 75.3 ± 12.0 µM.

Take `N.N.[Cl][Pt][Cl]` [cisplatin, cis-dichlorodiammne platinum (II)]: the “induction of P-gp” value in experiment [10] is 200-300 ×.
